Measurements from PubChem BioAssay AID1963965 (Molecular Pharmacology Branch, DTP, NCI, 2024).

System: 996289-038-R-J1-PDC spheroid viability
Experiment: Anticancer human tumor 996289-038-R-J1-PDC patient-derived colon adenocarcinoma cell line growth inhibition [PI3K]
Conditions: spheroids with HUVEC and MSC; for IC50: curve of first compound; for viability, T/C: stronger effect = lower value
Text: Combinatorial screen of targeted agents with the PI3K inhibitors inavolisib, alpelisib, duvelisib, and copanlisib in multi-cell type tumor spheroids
A high-throughput screen of multi-cell type tumor spheroids was designed to identify active combinations of targeted small molecules and PI3K pathway inhibitors. Complex spheroids include a stromal component modeled by human endothelial cells (HUVEC) and fibroblasts modeled by human mesenchymal stem cells (MSCs). The concentration ranges selected for each drug and investigational agent were based upon clinically achievable concentrations if the clinical Cmax of the agent was known.
Compounds. The drugs and investigational agents: inavolisib (NSC800729), alpelisib (NSC765974), duvelisib (NSC772469), copanlisib (NSC816437), ipatasertib (NSC767898), afuresertib (NSC778305), talazoparib (NSC767125), sapanisertib (NSC764658), selumetinib (NSC741078), tovorafenib (DAY101, NSC766906), vemurafenib (NSC761431), ravoxertinib (NSC781343), sotorasib (NSC818433), MRTX1133 (NSC 836407), abemaciclib (NSC 768073), palbociclib (NSC758247), venetoclax (NSC 766270), SY5609 (NSC837396), enzalutamide (NSC755605), and darolutamide (NSC825331), were obtained from the National Cancer Institute (NCI) Developmental Therapeutics Program Chemical Repository. The FDA-approved anticancer drug set is available from the NCI Developmental Therapeutics Program. […] The stock solutions were prepared in dimethyl sulfoxide (DMSO, Sigma-Aldrich, St. Louis, MO, cat. D2650) at 800-fold the tested concentration and stored at -70 degrees C prior to their use. All drugs and investigational agents were tested over a range starting from a high concentration at or near the clinical Cmax and decreasing in half-log increments. If the clinical Cmax for an agent had not been determined, the highest concentration tested was 10 microM.
Cell Culture. All cells were maintained in an incubator at 37 degrees C and 5% CO2 with 95% humidity. The PDC lines were cultured according to standard operating procedures established by the NCI PDMR (https://pdmr.cancer.gov/sops/default.htm). All PDCs were thawed and cultured in Matrigel-coated flasks prepared with a working solution of 1X Ham's F-12 nutrient mix, without supplementation (Invitrogen, Waltham, MA, cat. 11765054), 100 U/mL penicillin-streptomycin (Invitrogen, cat. 15140122), and 2.5% Matrigel (Corning Inc., Corning, NY, cat. 354248) for the first three passages. The 354836-022-R-J1-PDC, 475296-252-R-J1-PDC, and 997726-040-R-J2-PDC lines were cultured in 6A media, which includes advanced DMEM/F-12 (Thermo Fisher Scientific, cat. 12634028), 10 mM HEPES (Thermo Fisher Scientific, cat. 15630080), 1X GlutaMAX supplement (Thermo Fisher Scientific, cat. 35050061), 0.1 mg/mL primocin (InvivoGen, San Diego, CA, cat. ant-pm-2), 10% defined fetal bovine serum, heat inactivated (HyClone Laboratories Inc., Logan, UT, cat. SH30070.03HI), 50% L-WRN conditioned media (ATCC, cat. CRL-3276), 1.25 mM N-Acetyl-L-cysteine (Sigma-Aldrich, cat. A9165), 10 mM nicotinamide (Sigma-Aldrich, cat. N0636), 1X B-27 supplement (Thermo Fisher Scientific, cat. 17504044), 1X N-2 supplement (Thermo Fisher Scientific, cat. 17502048), and 10 microM Y-27632 dihydrochloride (Tocris Bioscience, Bristol, United Kingdom, cat. 1254). The 624824-186-R-J2-PDC line was cultured in 6C/Colon 1B media, which includes all 6A media components plus 50 ng/mL human EGF recombinant protein (Thermo Fisher Scientific, cat. PHG0311). […]
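Further: spheroids exposed to compounds for seven days before viability read.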
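Wherever viability, T/C is given: luminescence used as a proxy for viable cell amount; percent viability relative to DMSO vehicle control as 100%.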

## CC(C)n1nc(-c2ccc3oc(N)nc3c2)c2c(N)ncnc21 + Cc1nc(NC(=O)N2CCCC2C(N)=O)sc1-c1ccnc(C(C)(C)C(F)(F)F)c1
Second compound 0.0316 µM
  IC50: 54.8 nM
Second compound 0.1 µM
  IC50: 27.3 nM
Second compound 0.316 µM
  IC50: 41.5 nM
Second compound 1 µM
  IC50: 26 nM
Second compound 3.16 µM
  IC50: 2.54 nM
Second compound 10 µM
  IC50: < 0.316 nM
Second compound 0.0316 µM, first compound 0.000316 µM
  viability, T/C: 97.1%
Second compound 0.0316 µM, first compound 0.001 µM
  viability, T/C: 83.5%
Second compound 0.0316 µM, first compound 0.00316 µM
  viability, T/C: 89.2%
Second compound 0.0316 µM, first compound 0.01 µM
  viability, T/C: 79%
Second compound 0.0316 µM, first compound 0.0316 µM
  viability, T/C: 66.5%
Second compound 0.0316 µM, first compound 0.1 µM
  viability, T/C: 33.1%
Second compound 0.1 µM, first compound 0.000316 µM
  viability, T/C: 100%
Second compound 0.1 µM, first compound 0.001 µM
  viability, T/C: 83.2%
Second compound 0.1 µM, first compound 0.00316 µM
  viability, T/C: 78.4%
Second compound 0.1 µM, first compound 0.01 µM
  viability, T/C: 61.7%
Second compound 0.1 µM, first compound 0.0316 µM
  viability, T/C: 54.5%
Second compound 0.1 µM, first compound 0.1 µM
  viability, T/C: 25.4%
Second compound 0.316 µM, first compound 0.000316 µM
  viability, T/C: 77.7%
Second compound 0.316 µM, first compound 0.001 µM
  viability, T/C: 86.4%
Second compound 0.316 µM, first compound 0.00316 µM
  viability, T/C: 93%
Second compound 0.316 µM, first compound 0.01 µM
  viability, T/C: 58.9%
Second compound 0.316 µM, first compound 0.0316 µM
  viability, T/C: 63.3%
Second compound 0.316 µM, first compound 0.1 µM
  viability, T/C: 24.1%
Second compound 1 µM, first compound 0.000316 µM
  viability, T/C: 72.5%
Second compound 1 µM, first compound 0.001 µM
  viability, T/C: 79.9%
Second compound 1 µM, first compound 0.00316 µM
  viability, T/C: 66.5%
Second compound 1 µM, first compound 0.01 µM
  viability, T/C: 59.5%
Second compound 1 µM, first compound 0.0316 µM
  viability, T/C: 49.8%
Second compound 1 µM, first compound 0.1 µM
  viability, T/C: 22.3%
Second compound 3.16 µM, first compound 0.000316 µM
  viability, T/C: 63.9%
Second compound 3.16 µM, first compound 0.001 µM
  viability, T/C: 53%
Second compound 3.16 µM, first compound 0.00316 µM
  viability, T/C: 48.5%
Second compound 3.16 µM, first compound 0.01 µM
  viability, T/C: 40.6%
Second compound 3.16 µM, first compound 0.0316 µM
  viability, T/C: 32.3%
Second compound 3.16 µM, first compound 0.1 µM
  viability, T/C: 17.2%
Second compound 10 µM, first compound 0.000316 µM
  viability, T/C: 43.9%
Second compound 10 µM, first compound 0.001 µM
  viability, T/C: 40.8%
Second compound 10 µM, first compound 0.00316 µM
  viability, T/C: 40.4%
Second compound 10 µM, first compound 0.01 µM
  viability, T/C: 35.5%
Second compound 10 µM, first compound 0.0316 µM
  viability, T/C: 25.2%
Second compound 10 µM, first compound 0.1 µM
  viability, T/C: 14.2%
